Molecular target: T1, CPS1 (Homo sapiens, UniProt P31327)
T1 construct: The full length, human CPS1 gene was cloned into pFastBac HTA; His6 (from the pFastBac HTA vector); made in house; host or cells: SF21 insect cells (baculovirus, Bac-to-bac)
T1 sequence (P31327 39-1500): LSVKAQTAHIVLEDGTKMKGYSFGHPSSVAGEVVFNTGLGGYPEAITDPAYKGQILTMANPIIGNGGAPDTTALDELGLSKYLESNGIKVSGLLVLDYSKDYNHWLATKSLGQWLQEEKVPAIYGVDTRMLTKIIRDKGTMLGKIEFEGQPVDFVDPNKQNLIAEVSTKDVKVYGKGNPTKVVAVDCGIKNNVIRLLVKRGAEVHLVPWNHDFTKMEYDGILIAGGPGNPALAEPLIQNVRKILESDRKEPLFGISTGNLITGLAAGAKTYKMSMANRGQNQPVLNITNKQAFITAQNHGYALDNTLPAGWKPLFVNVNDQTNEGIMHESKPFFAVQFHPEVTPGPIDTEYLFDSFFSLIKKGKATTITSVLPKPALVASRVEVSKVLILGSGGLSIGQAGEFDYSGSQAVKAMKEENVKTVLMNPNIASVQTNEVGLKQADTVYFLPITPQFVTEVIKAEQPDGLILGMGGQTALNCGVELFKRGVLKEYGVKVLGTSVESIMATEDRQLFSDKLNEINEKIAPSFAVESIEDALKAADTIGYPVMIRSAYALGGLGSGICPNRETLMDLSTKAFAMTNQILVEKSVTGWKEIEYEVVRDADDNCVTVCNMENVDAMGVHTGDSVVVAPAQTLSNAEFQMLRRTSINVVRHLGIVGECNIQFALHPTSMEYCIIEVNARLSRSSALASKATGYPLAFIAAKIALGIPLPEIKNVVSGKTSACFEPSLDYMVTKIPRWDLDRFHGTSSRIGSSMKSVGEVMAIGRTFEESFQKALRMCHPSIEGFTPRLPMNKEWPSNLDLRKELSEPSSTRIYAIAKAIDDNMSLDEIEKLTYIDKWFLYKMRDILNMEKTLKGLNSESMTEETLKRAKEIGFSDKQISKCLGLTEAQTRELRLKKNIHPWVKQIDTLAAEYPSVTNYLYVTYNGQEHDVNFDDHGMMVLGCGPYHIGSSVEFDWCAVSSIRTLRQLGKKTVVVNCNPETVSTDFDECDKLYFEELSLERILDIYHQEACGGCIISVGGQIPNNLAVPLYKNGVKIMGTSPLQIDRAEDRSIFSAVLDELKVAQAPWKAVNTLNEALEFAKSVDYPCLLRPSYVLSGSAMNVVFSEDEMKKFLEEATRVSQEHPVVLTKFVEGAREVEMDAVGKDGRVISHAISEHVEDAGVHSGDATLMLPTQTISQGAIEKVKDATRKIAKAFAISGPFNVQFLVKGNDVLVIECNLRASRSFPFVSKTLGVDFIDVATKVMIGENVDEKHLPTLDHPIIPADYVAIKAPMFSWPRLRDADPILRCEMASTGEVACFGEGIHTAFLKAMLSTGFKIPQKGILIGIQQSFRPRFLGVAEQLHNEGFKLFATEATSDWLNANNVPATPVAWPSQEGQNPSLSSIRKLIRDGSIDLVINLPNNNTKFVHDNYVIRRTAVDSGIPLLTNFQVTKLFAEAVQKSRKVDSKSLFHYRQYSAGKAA
Assay: ADP-Glo endpoint assay measuring the ATPase activity of CPS1
Type: biochemical
Conditions: geometric mean of a minimum of two values; 50 nM CPS1, 10 μM ATP, 0.2 mM NAG, 60 min at room temperature; read-out: ADPGlo IC50
Summary of the method: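 Full-length human His-tagged CPS1 from SF21 insect cells, 50 nM, preincubated 20 min with compound in pH 7.0 HEPES buffer containing KHCO3, (NH4)2SO3, MgCl2 and 0.2 mM NAG. Reaction started with 10 μM ATP, 60 min at room temperature; ADP formed detected by ADP-Glo luminescence.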

Row | SMILES | IC50
1 | COc1ccc(C(=O)N2[C@H](C)CN(C(=O)c3ccc(OC)c(O)c3)C[C@H]2C)c(F)c1 [Compound 72, ((3R,5R)-4-(2-fluoro-4-methoxybenzoyl)-3,5-dimethylpiperazin-1-yl)(3-hydroxy-4-methoxyphenyl)methanone] | 11.5 µM
2 | COc1ccc(C(=O)N2[C@H](C)CN(C(=O)c3ccc4cc[nH]c4n3)C[C@H]2C)c(F)c1 [Compound 19, ((2R,6R)-2,6-Dimethyl-4-(1H-pyrrolo[2,3-b]pyridine-6-carbonyl)piperazin-1-yl)(2-fluoro-4-methoxyphenyl)methanone] | 3.28 µM
3 | COc1ccc(C(=O)N2[C@H](C)CN(C(=O)c3cc4c(OC)ccc(OC)c4[nH]3)C[C@H]2C)c(F)c1 [Compound 82, (4,7-dimethoxy-1H-indol-2-yl)((3R,5R)-4-(2-fluoro-4-methoxybenzoyl)-3,5-dimethylpiperazin-1-yl)methanone] | 26.4 µM
4 | COc1ccc(C(=O)N2C[C@@H](C)N(C(=O)c3ccc(OC)cc3F)[C@H](C)C2)c(F)c1 [Compound 26, ((2R,6R)-2,6-Dimethylpiperazine-1,4-diyl)bis((2-fluoro-4-methoxyphenyl)methanone)] | 0.362 µM
5 | COc1ccc(C(=O)N2[C@H](C)CN(C(=O)c3ccc(C)cc3F)C[C@H]2C)c(F)c1 [Compound 14, ((3R,5R)-4-(2-Fluoro-4-methoxybenzoyl)-3,5-dimethylpiperazin-1-yl)(2-fluoro-4-methylphenyl)methanone] | 2.2 µM
6 | COc1ccc(C(=O)N2[C@H](C)CN(C(=O)c3ccc4c(c3)NCC4)C[C@H]2C)c(F)c1 [Compound 69, ((3R,5R)-4-(2-fluoro-4-methoxybenzoyl)-3,5-dimethylpiperazin-1-yl)(indolin-6-yl)methanone] | 6.43 µM
7 | COc1ccc(C(=O)N2CCN(C(=O)c3ccc(OC)cc3F)C(C)(C)C2)c(F)c1 [Compound 48, (2,2-Dimethylpiperazine-1,4-diyl)bis((2-fluoro-4-methoxyphenyl)methanone)] | 4.68 µM
8 | COc1ccc(C(=O)N2C[C@@H](C)N(C(=O)c3ccc(-n4cnnn4)cc3)[C@H](C)C2)c(F)c1 [Compound 41, ((3R,5R)-4-(4-(1H-Tetrazol-1-yl)benzoyl)-3,5-dimethylpiperazin-1-yl)(2-fluoro-4-methoxyphenyl)methanone] | 10.4 µM
9 | COc1ccc(C(=O)N2[C@H](C)CN(C(=O)c3ccc(OC(F)(F)F)cc3F)C[C@H]2C)c(F)c1 [Compound 1, ((2R,6R)-4-(2-Fluoro-4-(trifluoromethoxy)benzoyl)-2,6-dimethylpiperazin-1-yl)(2-fluoro-4-methoxyphenyl)methanone] | 0.672 µM
10 | COc1ccc(C(=O)N2C[C@@H](C)N(C(=O)c3ccc(NC(C)=O)cc3F)[C@H](C)C2)c(F)c1 [Compound 93, N-(3-fluoro-4-((2R,6R)-4-(2-fluoro-4-methoxybenzoyl)-2,6-dimethylpiperazine-1-carbonyl)phenyl)acetamide] | > 66.7 µM
11 | COc1ccc(C(=O)N2C[C@@H](C)N(C(=O)c3ccc(OC(F)(F)F)cc3F)[C@H](C)C2)c(F)c1 [Compound 31, ((3R,5R)-4-(2-fluoro-4-(trifluoromethoxy)benzoyl)-3,5-dimethylpiperazin-1-yl)(2-fluoro-4-methoxyphenyl)methanone] | 1.19 µM
12 | COc1ccc(C(=O)N2[C@H](C)CN(C(=O)c3ccc4c(c3)CCO4)C[C@H]2C)c(F)c1 [Compound 21, ((2R,6R)-4-(2,3-Dihydrobenzofuran-5-carbonyl)-2,6-dimethylpiperazin-1-yl)(2-fluoro-4-methoxyphenyl)methanone] | 7.45 µM
13 | COc1ccc(C(=O)N2C[C@@H](C)N(C(=O)c3ccc4c(c3)CCCO4)[C@H](C)C2)c(F)c1 [Compound 74, ((3R,5R)-4-(chroman-6-carbonyl)-3,5-dimethylpiperazin-1-yl)(2-fluoro-4-methoxyphenyl)methanone] | 15.8 µM
14 | COc1ccc(C(=O)N2C[C@@H](C)N(C(=O)c3ccc4cc(C)[nH]c4c3)[C@H](C)C2)c(F)c1 [Compound 43, ((3R,5R)-3,5-Dimethyl-4-(2-methyl-1H-indole-6-carbonyl)piperazin-1-yl)(2-fluoro-4-methoxyphenyl)methanone] | 11.4 µM
15 | COc1ccc(C(=O)N2[C@H](C)CN(C(=O)c3ccc(OC)c(F)c3)C[C@H]2C)c(F)c1 [Compound 4, ((2R,6R)-4-(3-Fluoro-4-methoxybenzoyl)-2,6-dimethylpiperazin-1-yl)(2-fluoro-4-methoxyphenyl)methanone] | 0.545 µM
16 | CCOc1ccc(C(=O)N2C[C@@H](C)N(C(=O)c3ccc(OC)cc3F)[C@H](C)C2)c(F)c1 [Compound 5, ((2R,6R)-4-(4-Ethoxy-2-fluorobenzoyl)-2,6-dimethylpiperazin-1-yl)(2-fluoro-4-methoxyphenyl)methanone] | 0.139 µM
17 | COc1ccc(C(=O)N2[C@H](C)CN(C(=O)Cc3n[nH]c4ccccc34)C[C@H]2C)c(F)c1 [Compound 88, 1-((3R,5R)-4-(2-fluoro-4-methoxybenzoyl)-3,5-dimethylpiperazin-1-yl)-2-(1H-indazol-3-yl)ethanone] | 38.2 µM
18 | COc1ccc(OC)c2[nH]c(C(=O)N3CCN(C(=O)Cc4c[nH]c5ccccc45)CC3)cc12 [Compound 64, 1-(4-(4,7-dimethoxy-1H-indole-2-carbonyl)piperazin-1-yl)-2-(1H-indol-3-yl)ethanone] | 3.72 µM
19 | COc1ccc(C(=O)N2C[C@@H](C)N(C(=O)c3ccc(OC)cc3)[C@H](C)C2)cc1 [Compound 105, ((2R,6R)-2,6-dimethylpiperazine-1,4-diyl)bis((4-methoxyphenyl)methanone)] | 3.19 µM
20 | COc1ccc(C(=O)N2[C@H](C)CN(C(=O)c3ccc4c(c3)CCCO4)C[C@H]2C)c(F)c1 [Compound 18, Chroman-6-yl((3R,5R)-4-(2-fluoro-4-methoxybenzoyl)-3,5-dimethylpiperazin-1-yl)methanone] | 5.87 µM
21 | COc1ccc(C(=O)N2C[C@@H](C)N(C(=O)c3cc(OC)ccc3F)[C@H](C)C2)c(F)c1 [Compound 67, ((2R,6R)-4-(2-fluoro-4-methoxybenzoyl)-2,6-dimethylpiperazin-1-yl)(2-fluoro-5-methoxyphenyl)methanone] | 5.15 µM
22 | COc1ccc(C(=O)N2[C@H](C)CN(C(=O)c3c[nH]c4ccc(Cl)cc34)C[C@H]2C)c(F)c1 [Compound 61, (5-chloro-1H-indol-3-yl)((3R,5R)-4-(2-fluoro-4-methoxybenzoyl)-3,5-dimethylpiperazin-1-yl)methanone] | 7.39 µM
23 | COc1ccc(C(=O)N2C[C@@H](C)N(C(=O)c3cccc(O)c3)[C@H](C)C2)c(F)c1 [Compound 85, ((2R,6R)-4-(2-fluoro-4-methoxybenzoyl)-2,6-dimethylpiperazin-1-yl)(3-hydroxyphenyl)methanone] | 34.1 µM
24 | COc1ccc(C(=O)N2[C@H](C)CN(C(=O)c3c(C)cc(OC)cc3F)C[C@H]2C)c(F)c1 [Compound 81, ((2R,6R)-4-(2-fluoro-4-methoxy-6-methylbenzoyl)-2,6-dimethylpiperazin-1-yl)(2-fluoro-4-methoxyphenyl)methanone] | 25.8 µM
25 | COc1ccc(C(=O)N2C[C@@H](C)N(C(=O)c3ccc(S(C)(=O)=O)cc3F)[C@H](C)C2)c(F)c1 [Compound 76, ((3R,5R)-4-(2-fluoro-4-(methylsulfonyl)benzoyl)-3,5-dimethylpiperazin-1-yl)(2-fluoro-4-methoxyphenyl)methanone] | 16.7 µM
26 | COc1ccc(C(=O)N2C[C@@H](C)N(C(=O)c3ccc(F)cc3F)[C@H](C)C2)c(F)c1 [Compound 32, ((3R,5R)-4-(2,4-difluorobenzoyl)-3,5-dimethylpiperazin-1-yl)(2-fluoro-4-methoxyphenyl)methanone] | 1.44 µM

Reference: patent US20230026271A1, “Piperazine Compounds for Inhibiting CPS1” (Eisai R&D Management Co., Ltd., priority 2019, published 2023)
